Assay results published in patent publication US8580812B2, “Heteroaryl amide analogues as P2X7 antagonists” (H. Lundbeck A/S, priority 2007, dated 2013).

target: T1, P2X7 (Homo sapiens, UniProt Q99572); experiment: High Throughput P2X7 Calcium Mobilization Assay (Example 4A), antagonist activity; type: cell-based; conditions: SH-SY5Y cells, 50% decrease in fluorescence response of cells exposed to 80 μM BzATP
T1 construct: host or cells: SH-SY5Y
T1 sequence (Q99572 1-595): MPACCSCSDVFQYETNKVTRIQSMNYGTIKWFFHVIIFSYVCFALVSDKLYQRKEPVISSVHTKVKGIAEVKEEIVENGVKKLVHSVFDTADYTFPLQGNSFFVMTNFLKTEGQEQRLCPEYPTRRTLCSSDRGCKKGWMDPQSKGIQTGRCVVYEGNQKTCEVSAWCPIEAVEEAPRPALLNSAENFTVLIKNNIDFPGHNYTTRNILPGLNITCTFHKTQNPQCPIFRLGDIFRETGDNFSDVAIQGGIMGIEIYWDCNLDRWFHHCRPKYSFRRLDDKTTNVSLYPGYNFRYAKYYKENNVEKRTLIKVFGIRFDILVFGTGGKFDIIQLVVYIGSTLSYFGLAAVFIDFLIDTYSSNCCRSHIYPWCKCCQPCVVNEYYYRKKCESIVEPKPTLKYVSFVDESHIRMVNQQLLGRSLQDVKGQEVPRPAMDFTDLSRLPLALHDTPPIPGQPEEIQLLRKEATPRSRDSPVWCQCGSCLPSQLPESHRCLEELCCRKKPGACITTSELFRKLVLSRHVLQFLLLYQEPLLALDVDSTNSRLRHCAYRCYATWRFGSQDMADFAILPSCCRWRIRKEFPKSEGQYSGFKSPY
Description: A. High Throughput P2X7 Calcium Mobilization Assay
SH-SY5Y cells, ATCC Number CRL-2266, (American Type Culture Collection, Manassas, Va.) are cultured under DMEM/High medium supplemented with 10% FBS, and 10 mM HEPES (Invitrogen Corp., Carlsbad, Calif.) in 5% CO2 and at 37° C. One day prior to the experiment, cells are plated at a density of 100,000 cells/well in a 96 well black/clear TC plate (Corning® Costar®, Sigma-Aldrich Co., St. Louis, Mo.). At the beginning of the experiment, the culture medium is removed and cells are incubated with 50 μL of 2.3 μM Fluo-4 AM dye (Invitrogen Corp.) in the assay solution (5 mM KCl, 9.6 mM NaH2PO4.H2O, 25 mM HEPES, 280 mM Sucrose, 5 mM Glucose, and 0.5 mM CaCl2; pH is adjusted to 7.4 with NaOH) for an hour at 37° C. After one hour dye incubation, wells are rinsed once with 50 μL assay solution, and are then incubated for an hour at room temperature with 100 μL assay solution containing the test compound. The final concentration of test compound generally ranges from 1 to 2500 nM; for positive control cells, no test compound is added. After the one hour incubation, plates are transferred to a FLIPR^TETRA instrument (Molecular Devices, Sunnyvale, Calif.) for calcium mobilization analysis.
For determination of antagonist activity, 50 μL of P2X7 agonist (2′(3′)-O-(4-benzoyl-benzoyl)adenosine 5′-triphosephate (BzATP; Sigma-Aldrich) in the assay solution is transferred using the FLIPR into the plate, such that the final agonist concentration is 80 μM (about EC50). In negative control cells, 50 μL of assay solution without agonist is added at this stage. The peak fluorescence signal over a 2 minute period is then measured.
First, the average maximum relative fluorescent unit (RFU) response from the negative control wells (no agonist) is subtracted from the maximum response detected for each of the other experimental wells. Second, average maximum RFU response is calculated for the positive control wells (agonist wells). Then, percent inhibition for each compound tested is calculated using the equation: Percent Inhibition=100−100×(Peak Signal in Test Cells/Peak Signal in Control Cells) The % inhibition data is plotted as a function of test compound concentration and test compound IC50 is determined using, for example, KALEIDAGRAPH software (Synergy Software, Reading, Pa.) best fit of the data to the equation: y=m1*(1/(1+(m2/m0)^m3)) where y is the percent inhibition, m0 is […], m1 is the maximum RFU, m2 corresponds to the test compound IC50 (the concentration required to provide a 50% decrease, relative to the response observed in the presence of agonist and without antagonist) and m3 is the Hill coefficient.

IC50, ≤ 2000 nM:
CN(Cc1ccccn1)Cc1cc2c(C(=O)NCC34CC5CC(CC(C5)C3)C4)cccn2n1 [Compound 53, N-(adamantan-1-ylmethyl)-2-{[methyl(pyridin-2-ylmethyl)amino]methyl} pyrazolo[1,5-a]pyridine-4-carboxamide]
CN(Cc1cccnc1)Cc1cc2c(C(=O)NCC34CC5CC(CC(C5)C3)C4)cccn2n1 [Compound 54, N-(adamantan-1-ylmethyl)-2-{[methyl(pyridin-3-ylmethyl)amino]methyl} pyrazolo[1,5-a]pyridine-4-carboxamide]
CN(Cc1cnccn1)Cc1cc2c(C(=O)NCC34CC5CC(CC(C5)C3)C4)cccn2n1 [Compound 55, N-(adamantan-1-ylmethyl)-2-{[methyl(pyrazin-2-ylmethyl)amino]methyl} pyrazolo[1,5-a]pyridine-4-carboxamide]
CC(C)CC(CNC(=O)c1cccn2nc(C(=O)N3CC[C@@H](N)C3)cc12)c1cccnc1 (stereo partly drawn) [Compound 56, 2-{[(3R)-3-aminopyrrolidin-1-yl]carbonyl}-N-(4-methyl-2-pyridin-3-ylpentyl)pyrazolo[1,5-a]pyridine-4-carboxamide]
N[C@@H]1CCN(C(=O)c2cc3c(C(=O)NCC4(c5cccnc5)CCCCC4)cccn3n2)C1 [Compound 57, 2-{[(3R)-3-aminopyrrolidin-1-yl]carbonyl}-N-[(1-pyridin-3-ylcyclohexyl)methyl] pyrazolo[1,5-a]pyridine-4-carboxamide]
O=C(Cc1cc2c(C(=O)NCC34CC5CC(CC(C5)C3)C4)cccn2n1)NCCF [Compound 59, N-(adamantan-1-ylmethyl)-2-{2-[(2-fluoroethyl)amino]-2-oxoethyl}pyrazolo[1,5-a]pyridine-4-carboxamide]
O=C(Cc1cc2c(C(=O)NCC34CC5CC(CC(C5)C3)C4)cccn2n1)NCC(F)F [Compound 60, N-(adamantan-1-ylmethyl)-2-{2-[(2,2-difluoroethyl)amino]-2-oxoethyl}pyrazolo[1,5-a]pyridine-4-carboxamide]
O=C(Cc1cc2c(C(=O)NCC34CC5CC(CC(C5)C3)C4)cccn2n1)NCC(F)(F)F [Compound 61, N-(adamantan-1-ylmethyl)-2-{2-oxo-2-[(2,2,2-trifluoroethyl)amino]ethyl}pyrazolo[1,5-a]pyridine-4-carboxamide]
O=C(NCCF)c1cc2c(C(=O)NCC34CC5CC(CC(C5)C3)C4)cccn2n1 [Compound 62, 4-N-(adamantan-1-ylmethyl)-2-N-(2-fluoroethyl)pyrazolo [1,5-a]pyridine-2,4-dicarboxamide]
O=C(NCC(F)F)c1cc2c(C(=O)NCC34CC5CC(CC(C5)C3)C4)cccn2n1 [Compound 63, 4-N-(adamantan-1-ylmethyl)-2-N-(2,2-difluoroethyl)pyrazolo [1,5-a]pyridine-2,4-dicarboxamide]
O=C(NCC(F)(F)F)c1cc2c(C(=O)NCC34CC5CC(CC(C5)C3)C4)cccn2n1 [Compound 64, 4-N-(adamantan-1-ylmethyl)-2-N-(2,2,2-trifluoroethyl)pyrazolo [1,5-a]pyridine-2,4-dicarboxamide]
CN(Cc1ccccc1F)C(=O)c1cc2c(C(=O)NCC34CC5CC(CC(C5)C3)C4)cccn2n1 [Compound 65, 4-N-(adamantan-1-ylmethyl)-2-N-(2-fluorobenzyl)-2-N-methylpyrazolo[1,5-a]pyridine-2,4-dicarboxamide]
CN(Cc1cccc(F)c1)C(=O)c1cc2c(C(=O)NCC34CC5CC(CC(C5)C3)C4)cccn2n1 [Compound 66, 4-N-(adamantan-1-ylmethyl)-2-N-(3-fluorobenzyl)-2-N-methylpyrazolo[1,5-a]pyridine-2,4-dicarboxamide]
CN(Cc1ccc(F)cc1)C(=O)c1cc2c(C(=O)NCC34CC5CC(CC(C5)C3)C4)cccn2n1 [Compound 67, 4-N-(adamantan-1-ylmethyl)-2-N-(4-fluorobenzyl)-2-N-methylpyrazolo[1,5-a]pyridine-2,4-dicarboxamide]
CN(Cc1cc2c(C(=O)NCC34CC5CC(CC(C5)C3)C4)cccn2n1)Cc1ccccc1F [Compound 68, N-(adamantan-1-ylmethyl)-2-{[(2-fluorobenzyl)(methyl)amino]methyl}pyrazolo [1,5-a]pyridine-4-carboxamide]
CN(Cc1cccc(F)c1)Cc1cc2c(C(=O)NCC34CC5CC(CC(C5)C3)C4)cccn2n1 [Compound 69, N-(adamantan-1-ylmethyl)-2-{[(3-fluorobenzyl)(methyl)amino]methyl}pyrazolo [1,5-a]pyridine-4-carboxamide]
CN(Cc1ccc(F)cc1)Cc1cc2c(C(=O)NCC34CC5CC(CC(C5)C3)C4)cccn2n1 [Compound 70, N-(adamantan-1-ylmethyl)-2-{[(4-fluorobenzyl)(methyl)amino]methyl}pyrazolo [1,5-a]pyridine-4-carboxamide]
CC(C)CC(CNC(=O)c1cccn2nc(C(=O)N3CC[C@@H](N)C3)cc12)c1ccc(Cl)cc1 (stereo partly drawn) [Compound 71, 2-{[(3R)-3-aminopyrrolidin-1-yl]carbonyl}-N-[2-(4-chlorophenyl)-4-methylpentyl]pyrazolo [1,5-a]pyridine-4-carboxamide]
N[C@@H]1CCN(C(=O)c2cc3c(C(=O)NCC(CC4CCCCC4)c4ccccc4)cccn3n2)C1 (stereo partly drawn) [Compound 72, 2-{[(3R)-3-aminopyrrolidin-1-yl]carbonyl}-N-(3-cyclohexyl-2-phenylpropyl)pyrazolo [1,5-a]pyridine-4-carboxamide]
CN(CCF)C(=O)c1cc2c(C(=O)NCC34CC5CC(CC(C5)C3)C4)cccn2n1 [Compound 74, 4-N-(adamantan-1-ylmethyl)-2-N-(2-fluoroethyl)-2-N-methylpyrazolo[1,5-a]pyridine-2,4-dicarboxamide]
CN(CC(F)F)C(=O)c1cc2c(C(=O)NCC34CC5CC(CC(C5)C3)C4)cccn2n1 [Compound 75, 4-N-(adamantan-1-ylmethyl)-2-N-(2,2-difluoroethyl)-2-N-methylpyrazolo[1,5-a]pyridine-2,4-dicarboxamide]
CN(CC(F)(F)F)C(=O)c1cc2c(C(=O)NCC34CC5CC(CC(C5)C3)C4)cccn2n1 [Compound 76, 4-N-(adamantan-1-ylmethyl)-2-N-methyl-2-N-(2,2,2-trifluoroethyl)pyrazolo [1,5-a]pyridine-2,4-dicarboxamide]
CN(CCF)C(=O)Cc1cc2c(C(=O)NCC34CC5CC(CC(C5)C3)C4)cccn2n1 [Compound 77, N-(adamantan-1-ylmethyl)-2-{2-[(2-fluoroethyl)(methyl)amino]-2-oxoethyl}pyrazolo[1,5-a]pyridine-4-carboxamide]
CN(CC(F)F)C(=O)Cc1cc2c(C(=O)NCC34CC5CC(CC(C5)C3)C4)cccn2n1 [Compound 78, N-(adamantan-1-ylmethyl)-2-{2-[(2,2-difluoroethyl)(methyl)amino]-2-oxoethyl}pyrazolo[1,5-a]pyridine-4-carboxamide]
CN(CC(F)(F)F)C(=O)Cc1cc2c(C(=O)NCC34CC5CC(CC(C5)C3)C4)cccn2n1 [Compound 79, N-(adamantan-1-ylmethyl)-2-{2-[methyl(2,2,2-trifluoroethyl)amino]-2-oxoethyl}pyrazolo[1,5-a]pyridine-4-carboxamide]
